Source: US11717536B2, “Treatment for periodontitis” (THE UNIVERSITY OF MELBOURNE, priority 2017, dated 2023)
“Also recorded” adds a separate entry of the source. Marks after values point to notes of the source that are not given here.

Key:
Leptotrichia buccalis = test: Clinical trial: plaque microbial analysis, Leptotrichia buccalis; type: in vivo; conditions: 18.8 mg CPP-ACP sugar-free gum, 20 min six times per day, 14 days, vs no gum chewing; supragingival plaque
From the text: Following the completion of the examination and supragingival plaque collection, participants received a supragingival scaling, clean and prophylaxis of all their teeth. At the completion of the last examination for leg 3, each participant received a professional fluoride treatment.
Participants had all supragingival plaque collected from the buccal surfaces of their maxillary molars (teeth 17, 16, 26 & 27) with a sterile scaling instrument. The plaque samples from each tooth were placed in separate sterile tubes, to give four samples per participant.
Genomic DNA was extracted from the plaque using a combination of mechanical disruption of the cells via a Precellys homogeniser and the chemical extraction and purification of the genomic DNA via the PowerLyzer PowerSoil DNA Isolation Kit (MoBio). Quantitation of the extracted DNA was achieved using a Qubit dsDNA High Sensitivity Assay kit (ThermoFisher), before 5 ng DNA was used as template in a PCR reaction that amplified the V4 variable region of the 16S ribosomal RNA gene and individually barcoded the PCR product from each sample. The barcoded DNA was then sequenced using an Ion Torrent Personal Genome machine and Torrent Suite™ Software (ThermoFisher).
Analysis of the resulting sequence of the 16S ribosomal RNA gene enabled identification of the bacterial population present in each sample, down to the species level. […]

gingivitis = test: Clinical trial: gingivitis by Modified Gingival Index; type: in vivo, human; conditions: CPP-ACP gum (18.8 and 56.4 mg), 14 days, vs no gum chewing; FIG. 2
Description: Following the completion of the examination and supragingival plaque collection, participants received a supragingival scaling, clean and prophylaxis of all their teeth. At the completion of the last examination for leg 3, each participant received a professional fluoride treatment. Gingivitis was measured using the Modified Gingival Index [Lobene et al 1986]. This index is a modification of the Loe and Silness Gingival Index and allows greater discrimination for mild and moderate gingivitis. In this study, gingival inflammation on a scale from 0 to 4 was scored for gingival tissues associated with four sites (buccal, lingual, mesial and distal) of all teeth.

[1] = tested on: Actinomyces naeslundii (NCTC 10301); test: Six species polymicrobial biofilm in constant-depth film fermenter, species composition: A. naeslundii; type: cell-based; conditions: 19 days; mean ± standard deviation; n = 5-21
Description: (§1) To model supragingival plaque six representative oral bacterial species, Streptococcus sanguinis (NCTC 7863), Streptococcus mutans Ingbritt, Actinomyces naeslundii (NCTC 10301), Veillonella parvula (ATCC 17745), Lactobacillus casei (NCDO 161) and Fusobacterium nucleatum (ATCC 10953) (Table 5) were cultured as a polymicrobial biofilm on a human enamel substratum in a constant-depth film fermenter (CDFF; Cardiff University, UK). The CDFF was housed in a 37° C. incubator under anaerobic conditions which were maintained by a constant flow of 5% CO2 in N2 at 1 L/h. The CDFF contained 15 removable polytetrafluoroethylene (PTFE) pans on a circular platform that was rotated at a constant speed of three rpm. The biofilms were grown on three enamel blocks (see below) in each PTFE pan using an artificial saliva medium (ASM, 2.5 g/L mucin type II (porcine, gastric, Sigma), 2.0 g/L bacteriological peptone (Oxoid), 2.0 g/L tryptone (Oxoid), 1.0 g/L yeast extract (Oxoid), 0.35 g/L NaCl, 0.2 g/L KCl, 0.2 mg/L vitamin K, 1 mg/L haemin and 0.1 g/L cysteine hydrochloride) at a constant flow rate of 30 mL/h. Prior to inoculation, the CDFF pan surfaces were conditioned for 24 h with ASM at a flow rate of 10 mL/h (McBain et al (2003) J Appl Microbiol. 94(4):655-66). In order to mimic in vivo bacterial growth conditions in the oral cavity with dietary sugar intake and to provide a high cariogenic challenge, a 1% (w/v) sucrose solution in ASM was pumped into the CDFF four times a day at four hourly intervals with a flow rate of 30 mL/h for 10 min.
(§2) Three treatments were applied to the polymicrobial biofilms: 290 ppm fluoride with 220 ppm fluoride as SnF2 and 70 ppm fluoride as NaF (referred to as SnF2), 2% CPP-ACP and 2% CPP-ACP-SnF2. […]
(§3) For each timepoint, DNA was extracted separately from 8-9 enamel blocks using PowerLyzer® PowerSoil® DNA Isolation Kits (MoBio Laboratories) following the manufacturers “Vacuum Protocol” with a Precellys® bead homogeniser (Bertin Technologies). Samples were quantified using a Qubit™ dsDNA HS assay kit (Life Technologies) before being stored at −80° C. […]

[2] = tested on: Lactobacillus casei (NCDO 161); test: Six species polymicrobial biofilm in constant-depth film fermenter, species composition: L. casei; type: cell-based
Description: as §1
Three treatments were applied to the polymicrobial biofilms: 290 ppm fluoride with 220 ppm fluoride as SnF2 and 70 ppm fluoride as NaF (referred to as SnF2), 2% CPP-ACP and 2% CPP-ACP-SnF2. These treatments were compared with the control in which the test solution was replaced with ASM. Each treatment was applied using two 10 min pulses of the test solution in ASM with a flow rate of 30 mL/h. The first pulse started 30 min prior to the first sucrose pulse of the morning and the second started 3 h 30 min after the final sucrose pulse of the day.
On day 6, 12 and 19 after inoculation four pans were removed aseptically from the CDFF and replaced with blank sterile pans. Enamel blocks from the pans were removed for bacterial enumeration and transverse microradiography.
Planktonic and loosely attached bacterial cells were firstly removed from the enamel blocks by light washing with 100 μL ASM. […]
as §3

[3] = tested on: Streptococcus mutans Ingbritt; test: Six species polymicrobial biofilm in constant-depth film fermenter, species composition: S. mutans; type: cell-based
Description: as §1, §2, §3

[4] = 19 days, mean ± standard deviation, n = 5-21

## Casein phosphopeptide-amorphous calcium phosphate [CPP-ACP]
Leptotrichia buccalis
  % decrease in relative abundance, Leptotrichia buccalis: 76% (p < 0.05)
gingivitis
  gingival index: significant CPP-ACP dose-related improvement
[1]
  A. naeslundii as a percentage of total bacteria in the biofilm: 11.93 ± 2.34^b %
[2]; [4]
  L. casei as a percentage of total bacteria in the biofilm: 0.38 ± 0.23^ac %
[2]; twice daily treatment, day 19
  change in abundance of L. casei relative to the control (in words): dramatically decreased; also recorded: suppressed the emergence
[2]; twice daily treatment, consistent
  decrease in relative abundance of L. casei compared with the control: > 95%
[3]; [4]
  S. mutans as a percentage of total bacteria in the biofilm: 58.70 ± 5.47^b %
[3]; twice daily treatment, day 19
  change in abundance of S. mutans relative to the control (in words): remained relatively constant
